The record followed here is patent publication US4786633A, “Cephalosporin compounds” (Tanabe Seiyaku Co., Ltd., priority 1986, dated 1988).

Experiment [1] deals with Pseudomonas aeruginosa PI-67. The experiment can be described thus: Antimicrobial activity in vitro (MIC, standard agar plate dilution method). Format: cell-based. The note with it: PI67, Mueller-Hinton agar, read-out: M.I.C. (minimum inhibitory concentration). The method, then:
(§1) (Antimicrobial activity in vitro)
(§2) The minimum inhibitory concentration (MIC, μg/ml) of a test compound was determined by means of a standard agar plate dilution method (based on the standard method of Japan Society of Chemotherapy). Media used in the experiment were Mueller-Hinton agar (MHA; product of Nissui).

The test system of experiment [2] is Staphylococcus aureus Smith. Described as above. Format: cell-based. As to conditions: Mueller-Hinton agar, read-out: M.I.C. (minimum inhibitory concentration). The method, then:
as §1, §2

The subject of experiment [3] is Staphylococcus aureus Smith. The experiment can be described thus: Protective effects on bacterial infections in mice (Staphylococcus aureus Smith). As to conditions: im, 168 h, intraperitoneal challenge, compound intramuscularly one hour after infection, survival 7 days after infection, probit analysis, read-out: ED50 (median effective dose). Format: in vivo. The procedure: (§3) (Protective effects on bacterial infections in mice) Ten mice weighing 20±1 g were used for each dose level. Mice were challenged via the intraperitoneal route with sufficient bacteria to kill all non-treated mice within 24 hours. All bacteria were suspended in a physiological saline solution containing 6% mucin. A test compound was administered intramuscularly one hour after the infection. Survival ratios were determined 7 days after the infection. The median effective doses (ED50, mg/kg) of the test compound were estimated by the probit analysis.

The test system of experiment [4] is Pseudomonas aeruginosa PI-67. The experiment can be described thus: Protective effects on bacterial infections in mice (Pseudomonas aeruginosa PI-67). Format: in vivo. As to conditions: PI67, im, 168 h, intraperitoneal challenge, compound intramuscularly one hour after infection, survival 7 days after infection, probit analysis, read-out: ED50 (median effective dose). The procedure:
as §3

Values after ≈ are worked out from the molar mass of the structure shown.

With `C=CC[n+]1ccccc1SCC1=C(C(=O)[O-])N2C(=O)C(NC(=O)/C(=N\O[C@H]3CCNC3=O)c3csc(N)n3)C2SC1` (stereo partly drawn) [Test Compound 3, 7β-{(Z)-2-(2-aminothiazol-4-yl)-2-[((3S)-2-oxopyrrolidin-3-yl)oxyimino]acetamido}-3-(1-allyl-2-pyridinio)thiomethyl-3-cephem-4-carboxylate], the MIC in experiment [1] is 3.13 µg/mL (≈ 5.08 µM); in experiment [2] it was 1.56 µg/mL (≈ 2.53 µM). Also, the ED50 was found to be 0.4 mg/kg in experiment [3] and 10.8 mg/kg in experiment [4].

Turning to `C[n+]1ccccc1SCC1=C(C(=O)[O-])N2C(=O)C(NC(=O)/C(=N\O[C@H]3CCNC3=O)c3csc(N)n3)C2SC1` (stereo partly drawn) [Test Compound 2, 7β-{(Z)-2-(2-aminothiazol-4-yl)-2-[((3S)-2-oxopyrrolidin-3-yl)oxyimino]acetamido}-3-(1-methyl-2-pyridinio)thiomethyl-3-cephem-4-carboxylate], the MIC came to 1.56 µg/mL (≈ 2.65 µM) in experiment [1] and 0.78 µg/mL (≈ 1.32 µM) in experiment [2]. The ED50 in experiment [3] amounted to 0.25 mg/kg; in experiment [4], 15.8 mg/kg.

In the case of `C[n+]1ccc(SCC2=C(C(=O)[O-])N3C(=O)C(NC(=O)/C(=N\O[C@H]4CCNC4=O)c4csc(N)n4)C3SC2)cc1` (stereo partly drawn) [Test Compound 1, 7β-{(Z)-2-(2-aminothiazol-4-yl)-2-[((3S)-2-oxopyrrolidin-3-yl)oxyimino]acetamido}-3-(1-methyl-4-pyridinio)thiomethyl-3-cephem-4-carboxylate], the MIC in experiment [1] and in experiment [2] was 0.78 µg/mL (≈ 1.32 µM) in each case. In addition, the ED50 is 0.14 mg/kg in experiment [3] and 12.3 mg/kg in experiment [4].

What is called ED50 is the dose at which the effect has come halfway, by size or by number of responders.
